Here are results for 20 compounds from patent US12202835B2, “Substituted aromatic ring-linked dioxinoquinazolines and dioxinoquinolines as kinase inhibitors” (BEIJING SCITECH-MQ PHARMACEUTICALS LIMITED, priority 2018, dated 2025).

The first assay has as its system Ba/F3 LMNA-NTRK1-G595R cells. Kind of assay: Assay for inhibiting the proliferation of Ba/F3 LMNA-NTRK1-G595R cells (CCK-8). It is filed as cell-based. To be noted: Mus musculus, BaF3. The protocol: (§1) In particular, the method of the assay of small molecular compounds for inhibiting cell proliferation is as follows: • 1. Cells cultured to a logarithmic growth phase (adherent cells need to be digested with trypsin and neutralized) were taken, pipetted evenly, transferred to a 15 mL centrifuge tube, and centrifuged at 1000 rpm at room temperature for 4 minutes; • 2. The supernatant was discarded; 5 mL of complete medium was added and pipetted evenly; 10 μL of cell suspension was taken out, mixed well with 10 μL of 0.4% trypan blue, and counted under a cell counter; the proportion of living cells was ensured to be above 90%; • 3. 80 μL of cell suspension per well was seeded into a 96-well plate according to the conditions shown in the attached table, and cultured overnight; in the outer 36 wells of the 96-well plate, no cells were added but only sterile water was added; only the inner 60 wells were used for cell assay and control; • 4. 5×compound dilution: the compounds were serially diluted 3-fold to obtain a total of 9 concentrations; 80-fold overall dilution was completed with complete medium, the resulting concentration was 5 times the final drug concentration, and DMSO concentration was 1.25%; • 5. 20 μL of the corresponding compounds with different concentration gradients were added to each well of assay wells of the 96-well plate; 20 μL of complete medium was added to positive and negative control wells and shaken well; and the final concentration of DMSO in each well was 0.25%; • 6. After 72 hours of incubation, 10 μL of CCK-8 reagent was added to each well and further incubated at 37° C. for 1-2 hours; and the OD value was read at 450 nm; • 7. Cell survival rate (%)=[(As−Ab)/(Ac−Ab)]*100% • As: Assay well (medium containing cells, CCK-8, compound), • Ac: Control well (medium containing cells, CCK-8), • Ab: Blank well (CCK-8, medium without cell and compound), • 8. The values were imported into Graphpad Prism 5 software for IC50 calculation.
A word on the IC50: it is the concentration that inhibits the measured activity by half. Read a high IC50 as weaker potency in that assay. Compound `CCn1cc(C(=O)Nc2ccc(Oc3ccnc4cc(OC)c5c(c34)OCCO5)cc2)c(=O)n(-c2ccc(F)cc2)c1=O` [Example 146, N-(4-((5-methoxy-2,3-dihydro-[1,4]dioxino[2,3-f]quinolin-10-yl)oxy)phenyl)-3-(4-fluorophenyl)-1-ethyl-2,4-dioxo-1,2,3,4-tetrahydropyrimidine-5-carboxamide] yielded an IC50 of 200 to 1000 nM. Same read-out and setting: under `Cn1cc(C(=O)Nc2ccc(Oc3ccnc4cc(OCC(C)(C)O)c5c(c34)OCCO5)cc2Cl)c(=O)n(-c2ccc(F)cc2)c1=O` [Example 141, N-(2-chloro-4-((5-(2-hydroxy-2-methylpropoxy)-2,3-dihydro-[1,4]dioxino[2,3-f]quinolin-10-yl)oxy)phenyl)-3-(4-fluorophenyl)-1-methyl-2,4-dioxo-1,2,3,4-tetrahydropyrimidine-5-carboxamide] stands 50 to 200 nM; under `COc1cc2nccc(Oc3ccc(NC(=O)c4cn(C)c(=O)n(-c5ccc(F)cc5)c4=O)c(F)c3)c2c2c1OCCO2` [Example 153, N-(2-fluoro-4-((5-methoxy-2,3-dihydro-[1,4]dioxino[2,3-f]quinolin-10-yl)oxy)phenyl)-3-(4-fluorophenyl)-1-methyl-2,4-dioxo-1,2,3,4-tetrahydropyrimidine-5-carboxamide], not above 50 nM; under `COc1cc2nccc(Oc3ccc(NC(=O)c4cn(C)c(=O)n(-c5ccc(F)cc5)c4=O)cc3)c2c2c1OCCO2` [Example 145, N-(4-((5-methoxy-2,3-dihydro-[1,4]dioxino[2,3-f]quinolin-10-yl)oxy)phenyl)-3-(4-fluorophenyl)-1-methyl-2,4-dioxo-1,2,3,4-tetrahydropyrimidine-5-carboxamide], more than 1000 nM.

Regarding `CC(C)n1cc(C(=O)Nc2ccc(Oc3ccnc4cc(OCCCN(C)C5CCC5)c5c(c34)OCCO5)c(F)c2)c(=O)n(-c2ccc(F)cc2)c1=O` [Example 96, N-(3-fluoro-4-((5-(3-((cyclobutyl)(methyl)amino)propoxy)-2,3-dihydro-[1,4]dioxino[2,3-f]quinolin-10-yl)oxy)phenyl)-3-(4-fluorophenyl)-1-isopropyl-2,4-dioxo-1,2,3,4-tetrahydropyrimidine-5-carboxamide], the IC50 was in the range of 200 to 1000 nM.

Turning to `COc1cc2ncnc(Oc3ccc(NC(=O)c4cn(C)c(=O)n(-c5ccc(F)cc5)c4=O)cc3F)c2c2c1OCCO2` [Example 29, N-(3-fluoro-4-((5-methoxy-2,3-dihydro-[1,4]dioxino[2,3-f]quinazolin-10-yl)oxy)phenyl)-3-(4-fluorophenyl)-1-methyl-2,4-dioxo-1,2,3,4-tetrahydropyrimidine-5-carboxamide], the IC50 was 200 to 1000 nM. Still for that read-out and setting: under `CCn1cc(C(=O)Nc2ccc(Oc3ccnc4cc(OC)c5c(c34)OCCO5)c(F)c2)c(=O)n(-c2ccc(F)cc2)c1=O` [Example 37, N-(3-fluoro-4-((5-methoxy-2,3-dihydro-[1,4]dioxino[2,3-f]quinolin-10-yl)oxy)phenyl)-3-(4-fluorophenyl)-1-ethyl-2,4-dioxo-1,2,3,4-tetrahydropyrimidine-5-carboxamide] stands 50 to 200 nM. Still for that read-out and setting: in the case of `COc1cc2nccc(Oc3ccc(NC(=O)c4cn(C)c(=O)n(-c5ccc(F)cc5)c4=O)c(Cl)c3)c2c2c1OCCO2` [Example 125, N-(2-chloro-4-((5-methoxy-2,3-dihydro-[1,4]dioxino[2,3-f]quinolin-10-yl)oxy)phenyl)-3-(4-fluorophenyl)-1-methyl-2,4-dioxo-1,2,3,4-tetrahydropyrimidine-5-carboxamide] it was not above 50 nM; in that of `CCn1cc(C(=O)Nc2ccc(Oc3ccnc4cc(OCCOC)c5c(c34)OCCO5)cc2)c(=O)n(-c2ccc(F)cc2)c1=O` [Example 148, N-(4-((5-(2-methoxyethoxy)-2,3-dihydro-[1,4]dioxino[2,3-f]quinolin-10-yl)oxy)phenyl)-3-(4-fluorophenyl)-1-ethyl-2,4-dioxo-1,2,3,4-tetrahydropyrimidine-5-carboxamide], 200 to 1000 nM.

In turn, `Cn1cc(C(=O)Nc2ccc(Oc3ccnc4ccc5c(c34)OCCO5)cc2F)c(=O)n(-c2ccc(F)cc2)c1=O` [Example 162, N-(4-((2,3-dihydro-[1,4]dioxino[2,3-f]quinolin-10-yl)oxy)-2-fluorophenyl)-3-(4-fluorophenyl)-1-methyl-2,4-dioxo-1,2,3,4-tetrahydropyrimidine-5-carboxamide] had an IC50 of 50 to 200 nM.

Take `CCn1cc(C(=O)Nc2ccc(Oc3ccnc4cc(OCCCN5CCOCC5)c5c(c34)OCCO5)c(F)c2)c(=O)n(-c2ccc(F)cc2)c1=O` [Example 38, N-(3-fluoro-4-((5-(3-morpholinopropoxy)-2,3-dihydro-[1,4]dioxino[2,3-f]quinolin-10-yl)oxy)phenyl)-3-(4-fluorophenyl)-1-ethyl-2,4-dioxo-1,2,3,4-tetrahydropyrimidine-5-carboxamide]: the IC50 is 200 to 1000 nM.

`Cn1cc(C(=O)Nc2ccc(Oc3ccnc4cc(OCCCN5CCCCC5)c5c(c34)OCCO5)cc2Cl)c(=O)n(-c2ccc(F)cc2)c1=O` [Example 137, N-(2-chloro-4-((5-((3-piperidin-1-yl)propoxy)-2,3-dihydro-[1,4]dioxino[2,3-f]quinolin-10-yl)oxy)phenyl)-3-(4-fluorophenyl)-1-methyl-2,4-dioxo-1,2,3,4-tetrahydropyrimidine-5-carboxamide]: the IC50 was not above 50 nM. Same read-out and setting: under `Cn1cc(C(=O)Nc2ccc(Oc3ccnc4cc(OCCCN5CCOCC5)c5c(c34)OCCO5)cc2Cl)c(=O)n(-c2ccc(F)cc2)c1=O` [Example 98, N-(2-chloro-4-((5-(3-morpholinopropoxy)-2,3-dihydro-[1,4]dioxino[2,3-f]quinolin-10-yl)oxy)phenyl)-3-(4-fluorophenyl)-1-methyl-2,4-dioxo-1,2,3,4-tetrahydropyrimidine-5-carboxamide] stands 50 to 200 nM; under `CC(C)n1cc(C(=O)Nc2ccc(Oc3ccnc4cc(OCCCN5CCOCC5)c5c(c34)OCCO5)c(F)c2)c(=O)n(-c2ccc(F)cc2)c1=O` [Example 16, N-(3-fluoro-4-((5-(3-morpholinopropoxy)-2,3-dihydro-[1,4]dioxino[2,3-f]quinolin-10-yl)oxy)phenyl)-3-(4-fluorophenyl)-1-isopropyl-2,4-dioxo-1,2,3,4-tetrahydropyrimidine-5-carboxamide], 200 to 1000 nM. As for `COCCOc1cc2nccc(Oc3ccc(NC(=O)c4cn(C)c(=O)n(-c5ccc(F)cc5)c4=O)cc3)c2c2c1OCCO2` [Example 147, N-(4-((5-(2-methoxyethoxy)-2,3-dihydro-[1,4]dioxino[2,3-f]quinolin-10-yl)oxy)phenyl)-3-(4-fluorophenyl)-1-methyl-2,4-dioxo-1,2,3,4-tetrahydropyrimidine-5-carboxamide], the IC50 was in the range of 50 to 200 nM. The same measure, in the same setting: under `CCOc1cc2nccc(Oc3ccc(NC(=O)c4cn(C)c(=O)n(-c5ccc(F)cc5)c4=O)c(Cl)c3)c2c2c1OCCO2` [Example 129, N-(2-chloro-4-((5-ethoxy-2,3-dihydro-[1,4]dioxino[2,3-f]quinolin-10-yl)oxy)phenyl)-3-(4-fluorophenyl)-1-methyl-2,4-dioxo-1,2,3,4-tetrahydropyrimidine-5-carboxamide] stands not above 50 nM.

In another assay the test system is EBC1 cells. The experiment in a line: Assay for inhibiting the proliferation of EBC1 cells (CCK-8). To be noted: Homo sapiens, EBC-1. It is filed as cell-based. As to the method:
as §1
For `COc1cc2nccc(Oc3ccc(NC(=O)c4cccn(-c5ccc(F)cc5)c4=O)cc3F)c2c2c1OCCO2` [Example 17, N-(3-fluoro-4-((5-methoxy-2,3-dihydro-[1,4]dioxino[2,3-f]quinolin-10-yl)oxy)phenyl)-1-(4-fluorophenyl)-2-oxo-1,2-dihydropyridine-3-carboxamide], the IC50 is not above 50 nM. Consider `CCOc1ccn(-c2ccc(F)cc2)c(=O)c1C(=O)Nc1ccc(Oc2ccnc3cc(OCCCN4CCCCC4)c4c(c23)OCCO4)c(F)c1` [Example 33, N-(3-fluoro-4-((5-(3-(piperidin-1-yl)propoxy)-2,3-dihydro-[1,4]dioxino[2,3-f]quinolin-10-yl)oxy)phenyl)-1-(4-fluorophenyl)-4-ethoxy-2-oxo-1,2-dihydropyridine-3-carboxamide], for which the IC50 was not above 50 nM.

The compound `CCOc1ccn(-c2ccc(F)cc2)c(=O)c1C(=O)Nc1ccc(Oc2ccnc3cc(OCCOC)c4c(c23)OCCO4)c(F)c1` [Example 36, N-(3-fluoro-4-((5-(2-methoxyethoxy)-2,3-dihydro-[1,4]dioxino[2,3-f]quinolin-10-yl)oxy)phenyl)-1-(4-fluorophenyl)-4-ethoxy-2-oxo-1,2-dihydropyridine-3-carboxamide] gave an IC50 not above 50 nM. On the same count and under the same terms, under `CCOc1ccn(-c2ccc(F)cc2)c(=O)c1C(=O)Nc1ccc(Oc2ccnc3cc(OC)c4c(c23)OCCO4)c(F)c1` [Example 19, N-(3-fluoro-4-((5-methoxy-2,3-dihydro-[1,4]dioxino[2,3-f]quinolin-10-yl)oxy)phenyl)-1-(4-fluorophenyl)-4-ethoxy-2-oxo-1,2-dihydropyridine-3-carboxamide] stands not above 50 nM.
